Results on four compounds are retold here after ChEMBL document CHEMBL3867446, “Sulfoureido Lipopeptides from the Marine Sponge Discodermia kiiensis” (J Nat Prod, 2016).

The assay in a line: Cytotoxicity against mouse P388 cells after 3 days by MTT assay. It is filed as functional, cell-based. As to conditions: P388, 72 h.

In the case of `CC/C=C1/NC(=O)/C=C/[C@H](C(C)C)OC(=O)C(C)(C)[C@H](C[C@H](/C=C/C=C/C/C=C\CCCC)OC)OC(=O)CNC(=O)[C@H](CNC(N)=O)NC(=O)CNC(=O)[C@@H](CCCNC(=O)NS(=O)(=O)O)NC1=O`, the IC50 (usually the concentration at which inhibition is half-maximal) was 30 µM. Take `CC/C=C1/NC(=O)/C=C/[C@H](C(C)C)OC(=O)C(C)(C)[C@H](C[C@H](/C=C/C=C/C/C=C\CCC(C)C)OC)OC(=O)CNC(=O)[C@H](CNC(N)=O)NC(=O)CNC(=O)[C@@H](CCCNC(=O)NS(=O)(=O)O)NC1=O`: the midpoint of inhibition, the IC50, lay at 15 µM. Compound `CC/C=C1/NC(=O)/C=C/[C@H]([C@@H](C)CC)OC(=O)C(C)(C)[C@H](C[C@H](/C=C/C=C/C/C=C\CCC(C)C)OC)OC(=O)CNC(=O)[C@H](CNC(N)=O)NC(=O)CNC(=O)[C@@H](CCCNC(=O)NS(=O)(=O)O)NC1=O` gave an IC50 of 29 µM. Turning to `CC/C=C1/NC(=O)/C=C/[C@H](C(C)C)OC(=O)C(C)(C)[C@H](C[C@H](/C=C/C=C/C/C=C\CCC(C)C)OC)OC(=O)CNC(=O)[C@H](CNC(N)=O)NC(=O)CNC(=O)[C@@H](CCCNC(N)=O)NC1=O`, 36 µM corresponded to half-maximal inhibition (IC50).
